Test results as given in US20060058383A1 (priority 2004, published 2006).

How the values were obtained:
[1] = Stability of neutral drug solution on storage
[2] = system: human lymphoma cells (Raji); experiment: Apoptosis, annexin-V/PI flow cytometry; assay type: cell-based; details: for apoptotic cells: 30 μM in combination with 100 ng/ml rapamycin; for apoptosis: 30 μM
Description: Because the mTOR pathway plays an important role in promoting cellular nutrient metabolism and cell growth, and function to enhance cell survival downstream of the P13K/Akt pathway, the present inventors postulated that a simultaneous inhibition of mTOR and glycolysis, which serve as a major metabolic pathway for ATP generation in cancer cells, would severely impact cellular energy metabolism and have a potent cytotoxic effect against malignant cells. To test this possibility, rapamycin was used as an agent to inhibit mTOR, and glycolycin (3-bromo-2-oxopropionate, abbreviated herein as 3-BrOP) to inhibit glycolysis.
Cell growth inhibition was determined by direct counting of the cells after they were treated with rapamycin, 3-BrOP, or their combination. A Coulter Z2 Particle Count & Size Analyzer was used to determine cell counts at 24 h, 48 h, and 72 h after drug incubation. Apoptosis was measured by flow cytometric analysis of cells stained with annexin V-FITC and propidium iodide (PI). Cells were treated with the indicated compounds under various incubation conditions as described in the figure legends. The samples were collected, washed with cold PBS, and then suspended in annexin-V binding buffer. The cells were stained with annexin V-FITC for 15 min at room temperature, washed, and then stained with PI. The samples were analyzed using a FACSCalibur flow cytometer equipped with CELLQuestPro software (Becton-Dickinson, San Jose, Calif.).

[3] = mouse, in vivo
Raji cells [4] = experiment: Cellular glucose uptake, [3H]-2-deoxyglucose; assay type: cell-based, human; details: 2 h
Protocol: After the samples were washed three times with cold PBS, the radioactivity in the cell pellets was quantified by liquid scintillation counting. […] Intracellular nucleotides were extracted from the cells with 0.4 N of perchloric acid (PCA) for 10 min in ice-bath, neutralization with concentrated KOH to pH 7.0, and analyzed by HPLC analysis as described previously (Xu et al., 2005; Seymour et al., 1996). The intracellular ATP contents were calculated using the ATP standard curve generated under identical HPLC conditions, and normalized by equal cell number. The relative cellular ATP levels were expressed as percent of the control cells.

cancer cells = experiment: In vitro anticancer activity versus other glycolytic inhibitors; assay type: cell-based
Raji cells [5] = experiment: Cellular ATP pool by HPLC; assay type: cell-based, human
Protocol: HPLC analysis was then used to determine cellular ATP pool in an attempt to understand the biochemical basis of the synergistic activity of rapamycin and 3-BrOP. Raji cells were treated with various concentrations of 3-BrOP in the presence and absence of rapamycin (100 ng/ml) for 6 h, and cellular ATP and other nucleotide pools were measured by HPLC analysis as described in Examples herein.
Because this ATP depletion occurred before apoptosis became detectable, it seems that the enhancement of ATP depletion might be a biochemical mechanism by which rapamycin promote the cytotoxic effect of 3-BrOP. […]
After cells were treated with rapamycin and 3-BrOP under the desired conditions, cellular glucose uptake was measured by incubating the cells in glucose-free RPMI 1640 media with 0.2 μCi/ml of [^3H]-2-deoxyglucose (specific activity, 40 Ci/mmol) for 60 min. After the samples were washed three times with cold PBS, the radioactivity in the cell pellets was quantified by liquid scintillation counting. […] Intracellular nucleotides were extracted from the cells with 0.4 N of perchloric acid (PCA) for 10 min in ice-bath, neutralization with concentrated KOH to pH 7.0, and analyzed by HPLC analysis as described previously (Xu et al., 2005; Seymour et al., 1996). […] The relative cellular ATP levels were expressed as percent of the control cells.

Raji cells [6] = experiment: Drug combination index, median-effect analysis; assay type: cell-based, human; details: combination with rapamycin (100 ng/ml), 24 h; CI less than 1 = synergistic
Protocol: (§1) FIGS. 35A-35D show synergistic cytotoxic effect of rapamycin and glycolycin (3-BrOP) in human lymphoma and leukemia cells. In FIG. 35A, the human lymphoma Raji cells were treated with 3-BrOP (30 μM), rapamycin (100 ng/ml), or their combinations as indicated, and apoptosis was measured by flow cytometry analysis after the cells were double-stained with annexin-V and PI as described in the Examples. In case of drug combination, cells were first treated with rapamycin for 18 h before addition of 3-BrOP and incubated for an additional 24 h or 48 h. In FIG. 35B, there is concentration-dependent induction of loss of cell viability by 3-BrOP in the presence and absence of rapamycin (100 ng/ml, 24 h) in Raji cells. Cells were double-stained with annexin-V and PI followed by flow cytometry analysis, and viable cells were expressed as % of control. […] Cell viability was determined as described above.
(§2) The above observations prompted the present inventors to use a formal drug combination analysis to determine if rapamycin and 3-BrOP have a synergistic effect. […] Cells were treated with various concentrations of 3-BrOP in the presence of a fixed concentration of rapamycin (100 ng/ml) for 24 h, and the percentage of apoptotic cells was quantitated by flow cytometry analysis using annexin-V/PI double staining. […]

HL-60 leukemia cells = experiment: Drug combination index, median-effect analysis; assay type: cell-based, human; details: combination with rapamycin (100 ng/ml), 24 h; CI less than 1 = synergistic
Protocol: as §1, §2

SMILES: CCCOC(=O)C(=O)CBr [Glycolycin, propyl 3-bromo-2-oxopropionate]
- activity of solution after storage ([1]; kept at 4° C. for 3 weeks): remained stable
- stability of solution at neutral pH ([1]; pH 7.0, kept at 4° C.): stable
- apoptotic cells ([2]; 24 h): 38%
- apoptotic cells ([2]; 48 h): 79%
- apoptosis ([2]; 24 h): 19%
- apoptosis ([2]; 48 h): 49%
- toxicity in mice [3]: No obvious toxicity
- toxicity in animals, such as mice ([3]; 5 mg/kg): no apparent toxicity
- decrease of glucose uptake (Raji cells [4]; 30 μM): 33%
- decrease of glucose uptake (Raji cells [4]; 50 μM): 71%
- inhibition at 30 µM (Raji cells [4]; Homo sapiens, Raji, 30 μM, in the presence of rapamycin (100 ng/ml, 18 h pre-treatment)): 70%
- inhibition at 50 µM (Raji cells [4]; Homo sapiens, Raji, 50 μM, combination with 100 ng/ml of rapamycin (18 h pre-treatment)): 94%
- potency as measured by IC50 relative to currently available glycolytic inhibitors with a similar mechanism of action (cancer cells): 10-20 fold
- cellular ATP pool (Raji cells [5]; 6-h treatment after pre-incubation with 100 ng/ml rapamycin for 18 h): significantly enhanced the depletion of cellular ATP
- cellular ATP pool (Raji cells [5]; various concentrations, 6 h): concentration-dependent decrease
- drug combination index (CI) (Raji cells [6]): < 1.0
- drug combination index (CI) (HL-60 leukemia cells): < 1.0
